US11034650B2, “Compounds useful for treating a Mannheimia haemolytica or Histophilus somni infection” (Intervet Inc., priority 2016, dated 2021)
≈ marks a conversion by molar mass, not a printed value.

Assays:
Type in all cases: cell-based
[1] = tested on: Mannheimia haemolytica MH 6374 (ATCC 33396, reference strain); assay: MIC, broth-microdilution (CLSI VET01-A4), strain MH 6374; conditions: Mannheimia haemolytica strain MH 6374, broth-microdilution; unit assumed
Outline: (§1)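 Compounds were serially diluted twofold in microdilution trays. Growth was judged by eye, and the MIC was the lowest concentration showing no turbidity. Results were interpreted per CLSI VET01-S3.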

[2] = tested on: Pasteurella multocida PM 12080 (IV102277-0093, BRD field isolate); assay: MIC, broth-microdilution (CLSI VET01-A4), strain PM 12080; conditions: Pasteurella multocida strain PM 12080, broth-microdilution; unit assumed
Outline: as §1

[3] = tested on: Mannheimia haemolytica MH 12587 (1071, BRD field isolate, macrolide-resistance: erm+, E+); assay: MIC, broth-microdilution (CLSI VET01-A4), strain MH 12587; conditions: Mannheimia haemolytica strain MH 12587, broth-microdilution; unit assumed
Outline: as §1

[4] = tested on: Pasteurella multocida PM 6267 (P 2225 (L386), reference strain, mouse infection strain); assay: MIC, broth-microdilution (CLSI VET01-A4), strain PM 6267; conditions: Pasteurella multocida strain PM 6267, broth-microdilution; unit assumed
Outline: as §1

[5] = tested on: Mannheimia haemolytica MH 10720 (154, BRD field isolate); assay: MIC, broth-microdilution (CLSI VET01-A4), strain MH 10720; conditions: Mannheimia haemolytica strain MH 10720, broth-microdilution; unit assumed
Outline: as §1

[6] = tested on: Mannheimia haemolytica MH 13093 (XB0472-6014.1, BRD field isolate); assay: MIC, broth-microdilution (CLSI VET01-A4), strain MH 13093; conditions: Mannheimia haemolytica strain MH 13093, broth-microdilution; unit assumed
Outline: as §1

[7] = tested on: Mannheimia haemolytica MH 6357 (M7/2, reference strain, cattle infection strain); assay: MIC, broth-microdilution (CLSI VET01-A4), strain MH 6357; conditions: Mannheimia haemolytica strain MH 6357, broth-microdilution; unit assumed
Outline: as §1

[8] = tested on: Pasteurella multocida PM 10775 (080130003051, BRD field isolate); assay: MIC, broth-microdilution (CLSI VET01-A4), strain PM 10775; conditions: Pasteurella multocida strain PM 10775, broth-microdilution; unit assumed
Outline: as §1

[9] = tested on: Pasteurella multocida PM 6391 (ATCC 43137, reference strain); assay: MIC, broth-microdilution (CLSI VET01-A4), strain PM 6391; conditions: Pasteurella multocida strain PM 6391, broth-microdilution; unit assumed
Outline: as §1

[10] = tested on: Mannheimia haemolytica MH 13065 (XB0446-6003.9, BRD field isolate); assay: MIC, broth-microdilution (CLSI VET01-A4), strain MH 13065; conditions: Mannheimia haemolytica strain MH 13065, broth-microdilution; unit assumed
Outline: as §1

| SMILES | MIC MH 6374 [1] [mg/L] | MIC PM 12080 [2] [mg/L] | MIC MH 12587 [3] [mg/L] | MIC PM 6267 [4] [mg/L] | MIC MH 10720 [5] [mg/L] | MIC MH 13093 [6] [mg/L] | MIC MH 6357 [7] [mg/L] | MIC PM 10775 [8] [mg/L] | MIC PM 6391 [9] [mg/L] | MIC MH 13065 [10] [mg/L] |
| --- | --- | --- | --- | --- | --- | --- | --- | --- | --- | --- |
| CC(=O)C(NC(=O)c1ccc(C#Cc2ccc(CNCC3CCCO3)cc2)cc1)C(=O)NO (stereo not shown) [Compound 413] | 12.5 (≈ 27.8 µM) | 0.4 (≈ 0.89 µM) | 6.3 (≈ 14 µM) | 50 (≈ 111 µM) | 3.1 (≈ 6.9 µM) | 25 (≈ 55.6 µM) | 12.5 (≈ 27.8 µM) | 0.4 (≈ 0.89 µM) | 0.2 (≈ 0.445 µM) | 6.3 (≈ 14 µM) |
| CC(C)(C(NC(=O)c1ccc(C#Cc2ccc(CNCc3ccncc3)cc2)cc1)C(=O)NO)[N+](=O)[O-] (stereo not shown) [Compound 278] | 0.4 (≈ 0.798 µM) | ≤ 0.1 | 0.8 (≈ 1.6 µM) | ≤ 0.1 | ≤ 0.1 | 0.4 (≈ 0.798 µM) | 0.4 (≈ 0.798 µM) | ≤ 0.1 | ≤ 0.1 | 0.4 (≈ 0.798 µM) |
| CON=C(C)[C@H](NC(=O)c1ccc(C#Cc2ccc(CNCc3cccs3)cc2)cc1)C(=O)NO [Compound 392] | 0.4 (≈ 0.815 µM) | ≤ 0.1 | ≤ 0.1 | 1.6 (≈ 3.26 µM) | 0.4 (≈ 0.815 µM) | 0.4 (≈ 0.815 µM) | 0.4 (≈ 0.815 µM) | 0.4 (≈ 0.815 µM) | ≤ 0.1 | 0.4 (≈ 0.815 µM) |
| CC(C)(O)[C@H](NC(=O)c1ccc(C#Cc2ccc(CN3CCOCC3)nc2)cc1)C(=O)NO [Compound 326] | 6.3 (≈ 13.9 µM) | 0.4 (≈ 0.884 µM) | 12.5 (≈ 27.6 µM) | 3.1 (≈ 6.85 µM) | 0.8 (≈ 1.77 µM) | 6.3 (≈ 13.9 µM) | 3.1 (≈ 6.85 µM) | ≤ 0.1 | 0.4 (≈ 0.884 µM) | 3.1 (≈ 6.85 µM) |
| CC(=O)C(NC(=O)c1ccc(C#Cc2ccc(CNCc3ccccc3)cc2)cc1)C(=O)NO (stereo not shown) [Compound 400] | 1.6 (≈ 3.51 µM) | 0.4 (≈ 0.878 µM) | 0.2 (≈ 0.439 µM) | 3.1 (≈ 6.81 µM) | 1.6 (≈ 3.51 µM) | 1.6 (≈ 3.51 µM) | 0.8 (≈ 1.76 µM) | 0.8 (≈ 1.76 µM) | ≤ 0.1 | 1.6 (≈ 3.51 µM) |
| CSC(C)(C)[C@H](NC(=O)c1ccc(C#Cc2ccc(CNC3CCCC3)cc2)cc1)C(=O)NO [Compound 244] | 6.3 (≈ 13.1 µM) | 0.8 (≈ 1.67 µM) | 6.3 (≈ 13.1 µM) | 0.4 (≈ 0.834 µM) | 1.6 (≈ 3.34 µM) | 6.3 (≈ 13.1 µM) | 3.1 (≈ 6.46 µM) | 0.2 (≈ 0.417 µM) | 1.6 (≈ 3.34 µM) | 3.1 (≈ 6.46 µM) |
| CC(=O)C(NC(=O)c1ccc(C#Cc2ccc(CN3CCCC3)cc2)cc1)C(=O)NO (stereo not shown) [Compound 403] | 12.5 (≈ 29.8 µM) | 3.1 (≈ 7.39 µM) | 6.3 (≈ 15 µM) | 100 (≈ 238 µM) | 12.5 (≈ 29.8 µM) | 25 (≈ 59.6 µM) | 25 (≈ 59.6 µM) | 6.3 (≈ 15 µM) | 0.8 (≈ 1.91 µM) | 25 (≈ 59.6 µM) |
| CSC(C)(C)[C@H](NC(=O)c1ccc(C#Cc2ccc(CNCc3nccs3)nc2)cc1)C(=O)NO [Compound 368] | 0.8 (≈ 1.57 µM) | 0.2 (≈ 0.392 µM) | 1.6 (≈ 3.14 µM) | 0.4 (≈ 0.785 µM) | 0.4 (≈ 0.785 µM) | 1.6 (≈ 3.14 µM) | 0.8 (≈ 1.57 µM) | ≤ 0.1 | 0.4 (≈ 0.785 µM) | 0.8 (≈ 1.57 µM) |
| CC[C@H](C)[C@H](NC(=O)c1ccc(C#Cc2ccc(CN3CC(C)OC(C)C3)cc2)cc1)C(=O)NO (stereo partly shown) [Compound 191] | 25 (≈ 52.3 µM) | ≤ 0.1 | 25 (≈ 52.3 µM) | ≤ 0.1 | 1.6 (≈ 3.35 µM) | 12.5 (≈ 26.2 µM) | 6.3 (≈ 13.2 µM) | ≤ 0.1 | ≤ 0.1 | 6.3 (≈ 13.2 µM) |
| CSC(C)(C)C(NC(=O)c1ccc(C#Cc2ccc(CNCc3ccccc3)s2)cc1)C(=O)NO (stereo not shown) [Compound 304] | 1.6 (≈ 3.15 µM) | 0.4 (≈ 0.788 µM) | 1.6 (≈ 3.15 µM) | 1.6 (≈ 3.15 µM) | ≤ 0.1 | 3.1 (≈ 6.11 µM) | 0.8 (≈ 1.58 µM) | ≤ 0.1 | 1.6 (≈ 3.15 µM) | 1.6 (≈ 3.15 µM) |
| CC[C@H](C)[C@H](NC(=O)c1ccc(C#Cc2ccc(CN3CCCC3)cc2)cc1)C(=O)NO [Compound 174] | 6.3 (≈ 14.5 µM) | 1.6 (≈ 3.69 µM) | 6.3 (≈ 14.5 µM) | 0.4 (≈ 0.923 µM) | 0.8 (≈ 1.85 µM) | 6.3 (≈ 14.5 µM) | 3.1 (≈ 7.15 µM) | ≤ 0.1 | 1.6 (≈ 3.69 µM) | 6.3 (≈ 14.5 µM) |
| CSC(C)(C)[C@H](NC(=O)c1ccc(C#Cc2ccc(CNCc3ncc(C)o3)s2)cc1)C(=O)NO [Compound 310] | 0.8 (≈ 1.56 µM) | 0.8 (≈ 1.56 µM) | 3.1 (≈ 6.05 µM) | 1.6 (≈ 3.12 µM) | 0.4 (≈ 0.78 µM) | 1.6 (≈ 3.12 µM) | 1.6 (≈ 3.12 µM) | 0.4 (≈ 0.78 µM) | 0.4 (≈ 0.78 µM) | 1.6 (≈ 3.12 µM) |
| Cc1ccc(CNCc2ccc(C#Cc3ccc(C(=O)NC(C(=O)NO)C(C)(C)O)cc3)cc2)cc1 (stereo not shown) [Compound 233] | 0.4 (≈ 0.824 µM) | ≤ 0.1 | 1.6 (≈ 3.3 µM) | ≤ 0.1 | ≤ 0.1 | 0.8 (≈ 1.65 µM) | 0.8 (≈ 1.65 µM) | ≤ 0.1 | 0.2 (≈ 0.412 µM) | 0.4 (≈ 0.824 µM) |
| CCNCc1ccc(C#Cc2ccc(C(=O)N[C@@H](CO)C(=O)NO)cc2)cc1 [Compound 151] | 25 (≈ 65.5 µM) | 6.3 (≈ 16.5 µM) | 25 (≈ 65.5 µM) | 3.1 (≈ 8.13 µM) | 3.1 (≈ 8.13 µM) | 25 (≈ 65.5 µM) | 6.3 (≈ 16.5 µM) | ≤ 0.1 | 12.5 (≈ 32.8 µM) | 12.5 (≈ 32.8 µM) |
| CC(C)([C@H](NC(=O)c1ccc(C#Cc2ccc(CNCc3ccccc3)nc2)cc1)C(=O)NO)S(C)(=O)=O [Compound 351] | 0.4 (≈ 0.748 µM) | ≤ 0.1 | 1.6 (≈ 2.99 µM) | 0.4 (≈ 0.748 µM) | ≤ 0.1 | 0.8 (≈ 1.5 µM) | 0.4 (≈ 0.748 µM) | ≤ 0.1 | 0.4 (≈ 0.748 µM) | 1.6 (≈ 2.99 µM) |
| CC(C)(O)[C@H](NC(=O)c1ccc(C#Cc2ccc(CNCc3ccnc(Cl)c3)cc2)cc1)C(=O)NO [Compound 229] | 0.4 (≈ 0.789 µM) | ≤ 0.1 | 0.4 (≈ 0.789 µM) | ≤ 0.1 | ≤ 0.1 | 0.4 (≈ 0.789 µM) | 0.4 (≈ 0.789 µM) | ≤ 0.1 | ≤ 0.1 | 0.2 (≈ 0.394 µM) |
| CCNCc1ccc(C#Cc2ccc(C(=O)N[C@H](C(=O)NO)[C@@H](C)CC)cc2)cc1 [Compound 176] | 6.3 (≈ 15.5 µM) | 1.6 (≈ 3.93 µM) | 12.5 (≈ 30.7 µM) | 0.8 (≈ 1.96 µM) | 3.1 (≈ 7.61 µM) | 12.5 (≈ 30.7 µM) | 3.1 (≈ 7.61 µM) | ≤ 0.1 | 3.1 (≈ 7.61 µM) | 6.3 (≈ 15.5 µM) |
| CON=C(C)[C@H](NC(=O)c1ccc(C#Cc2ccc(CNC3CCCC3)cc2)cc1)C(=O)NO [Compound 386] | 12.5 (≈ 27 µM) | 0.4 (≈ 0.865 µM) | 1.6 (≈ 3.46 µM) | 50 (≈ 108 µM) | 1.6 (≈ 3.46 µM) | 12.5 (≈ 27 µM) | 12.5 (≈ 27 µM) | 1.6 (≈ 3.46 µM) | 0.4 (≈ 0.865 µM) | 12.5 (≈ 27 µM) |
| CC(C)(O)[C@H](NC(=O)c1ccc(C#Cc2ccc(CNCc3ccccc3)s2)cc1)C(=O)NO [Compound 294] | 0.2 (≈ 0.419 µM) | ≤ 0.1 | 0.4 (≈ 0.838 µM) | 0.8 (≈ 1.68 µM) | ≤ 0.1 | 0.4 (≈ 0.838 µM) | ≤ 0.1 | ≤ 0.1 | 0.2 (≈ 0.419 µM) | ≤ 0.1 |
| C=CCNCc1ccc(C#Cc2ccc(C(=O)N[C@H](C(=O)NO)C(C)(C)O)cc2)s1 [Compound 291] | ≤ 0.1 | ≤ 0.1 | 0.8 (≈ 1.87 µM) | 0.8 (≈ 1.87 µM) | ≤ 0.1 | 0.4 (≈ 0.936 µM) | ≤ 0.1 | ≤ 0.1 | 0.4 (≈ 0.936 µM) | 0.4 (≈ 0.936 µM) |
| CC(C)(O)[C@H](NC(=O)c1ccc(C#Cc2ccc(CNC3CC3)nc2)cc1)C(=O)NO [Compound 324] | 0.8 (≈ 1.89 µM) | 0.2 (≈ 0.473 µM) | 1.6 (≈ 3.79 µM) | 0.4 (≈ 0.947 µM) | ≤ 0.1 | 1.6 (≈ 3.79 µM) | 0.4 (≈ 0.947 µM) | ≤ 0.1 | 0.4 (≈ 0.947 µM) | 0.8 (≈ 1.89 µM) |
| C=CCNCc1ccc(C#Cc2ccc(C(=O)N[C@H](C(=O)NO)C(C)(C)S(C)(=O)=O)cc2)cc1 [C.256] | 0.8 (≈ 1.65 µM) | ≤ 0.1 | 1.6 (≈ 3.31 µM) | ≤ 0.1 | ≤ 0.1 | 0.8 (≈ 1.65 µM) | 1.6 (≈ 3.31 µM) | ≤ 0.1 | ≤ 0.1 | 0.8 (≈ 1.65 µM) |
